In patent publication US20020123485A1, “Epoxy steroidal aldosterone antagonist and beta-adrenergic antagonist combination therapy for treatment of congestive heart failure” (priority 2000, published 2002):

Assays:
[1] = system: myocardial fibrosis in animal models; details: cited from earlier work
[2] = system: rats with ligated left anterior descending coronary artery; test: Assay D: myocardial infarction rat model; format: in vivo; details: combination of beta-adrenergic antagonist and eplerenone versus either component alone; six weeks
Source text: Male rats are anesthetized and the heart is exteriorized following a left sided thoracotomy. The left anterior descending coronary artery is ligated with a suture. The thorax is closed and the animal recovers. Sham animals have the suture e passed through without ligation. One week prior to the surgery, animals to undergo infarction are divided into separate groups and drug treatment is begun. […] After six weeks, systolic and diastolic blood pressure, left ventricular end diastolic pressure, left ventricular dP/dt, and heart rate are evaluated. The hearts are removed, weighed, measured and fixed in formalin. Collagen content of heart sections are evaluated using computerized image analysis of picrosirius stained sections.

[3] = system: patients with mild to moderate hypertension; test: Example 19 clinical study: eplerenone versus placebo co-administered with a calcium-channel blocker; format: in vivo, human
Source text: This multicenter, randomized, double-blind, placebo-controlled, placebo run-in, parallel group trial involving a minimum of 120 randomized patients with hypertension (seated diastolic blood pressure [seDBP] ≧95 mmHg and <110 mmHg and seated systolic BP [seSBP] <180 mmHg while taking a CCB) will consist of a one- to two-week pretreatment screening period followed by a two- to four-week single-blind placebo run-in period and an 8-week double-blind treatment period. Eligible patients will be patients currently receiving a CCB as part of their antihypertensive medication. […] The dose will not be changed for patients with adequate BP control. […] If the dose has been increased at Week 2, the patient will be reassessed at Week 6. […] If BP is uncontrolled at Week 6 and the dose has been increased at Week 2 or Week 4, the patient must be withdrawn from the study. If symptomatic hypotension (i.e., lightheadedness, dizziness, or syncope associated with low BP) occurs at any time during the study, or if DBP is ≧110 mmHg or SBP is ≧180 mmHg at any time during the trial, the patient must be withdrawn. Patients will receive study medication for a total of 8 weeks.
The study will consist of a one- to two-week pretreatment screening period followed by a two- to four-week single-blind placebo run-in treatment period, prior to randomization to an eight-week double-blind treatment period.
Eligible patients will be either currently receiving a CCB alone, or receiving a CCB as part of their antihypertensive medication. […] The dose will not be changed for patients with adequate BP control. […] If the dose has been increased at Week 2, the patient will be reassessed at Week 6. The dose of study medication will not be changed for patients with adequate BP control. […] If BP is uncontrolled at Week 6 and the dose has been increased at Week 2 or Week 4, the patient must be withdrawn from the study. The dose of study medication will not be changed for patients with adequate BP control. If symptomatic hypotension (i.e., lightheadedness, dizziness, or syncope associated with low BP) occurs at any time during the study, or if DBP is ≧110 mmHg or SBP is ≧180 mmHg at any time during the study, the patient must be withdrawn. Patients will receive study medication for a total of eight weeks.
Patients will return to the clinic for evaluations at Weeks 0, 2, 4, 6, 8, and 9. Heart rate, BP, adverse events and concomitant medication will be assessed at each visit. Hematology and biochemistry evaluations and urinalysis for safety will be at Weeks 0, 8, and 9. Serum potassium levels will be determined at Weeks 0, 2, 4, 6, 8, and 9. Plasma renin, serum aldosterone, and plasma cortisol will be determined at Weeks 0 and 8. A 12-lead electrocardiogram and physical examination will be done at screening and at Week 9.
All randomized patients with at least one post-baseline assessment will be included in the efficacy analysis (intent-to-treat population). In each analysis, missing values will be imputed using the last observation carried forward (LOCF) method. The analysis of safety will focus on all randomized patients who took at least one dose of study medication (safety population).
BP evaluations will be analyzed at each visit using two-way analysis of covariance (ANCOVA) with the baseline measurement as the covariate and treatment and center as factors. The response variable will be the change from baseline. […]

[4] = system: rats made hypertensive by renal artery clip; test: Assay C: hypertensive rat model; format: in vivo; details: combination of beta-adrenergic antagonist and eplerenone versus either component alone; 12 and 24 weeks
Source text: Male rats are made hypertensive by placing a silver clip with an aperture of 240 microns on the left renal artery, leaving the contralateral kidney untouched. Sham controls undergo the same procedure but without attachment of the clip. One week prior to the surgery, animals to be made hypertensive are divided into separate groups and drug treatment is begun. […] After 12 and 24 weeks, systolic and diastolic blood pressure, left ventricular end diastolic pressure, left ventricular dP/dt, and heart rate are evaluated. The hearts are removed, weighed, measured and fixed in formalin. Collagen content of heart sections are evaluated using computeried image analysis of picrosirius stained sections.

[5] = molecular target: T1, progesterone receptor (Homo sapiens, UniProt P06401); test: binding affinity for the progesterone receptor relative to spironolactone
T1 sequence (P06401 1-933): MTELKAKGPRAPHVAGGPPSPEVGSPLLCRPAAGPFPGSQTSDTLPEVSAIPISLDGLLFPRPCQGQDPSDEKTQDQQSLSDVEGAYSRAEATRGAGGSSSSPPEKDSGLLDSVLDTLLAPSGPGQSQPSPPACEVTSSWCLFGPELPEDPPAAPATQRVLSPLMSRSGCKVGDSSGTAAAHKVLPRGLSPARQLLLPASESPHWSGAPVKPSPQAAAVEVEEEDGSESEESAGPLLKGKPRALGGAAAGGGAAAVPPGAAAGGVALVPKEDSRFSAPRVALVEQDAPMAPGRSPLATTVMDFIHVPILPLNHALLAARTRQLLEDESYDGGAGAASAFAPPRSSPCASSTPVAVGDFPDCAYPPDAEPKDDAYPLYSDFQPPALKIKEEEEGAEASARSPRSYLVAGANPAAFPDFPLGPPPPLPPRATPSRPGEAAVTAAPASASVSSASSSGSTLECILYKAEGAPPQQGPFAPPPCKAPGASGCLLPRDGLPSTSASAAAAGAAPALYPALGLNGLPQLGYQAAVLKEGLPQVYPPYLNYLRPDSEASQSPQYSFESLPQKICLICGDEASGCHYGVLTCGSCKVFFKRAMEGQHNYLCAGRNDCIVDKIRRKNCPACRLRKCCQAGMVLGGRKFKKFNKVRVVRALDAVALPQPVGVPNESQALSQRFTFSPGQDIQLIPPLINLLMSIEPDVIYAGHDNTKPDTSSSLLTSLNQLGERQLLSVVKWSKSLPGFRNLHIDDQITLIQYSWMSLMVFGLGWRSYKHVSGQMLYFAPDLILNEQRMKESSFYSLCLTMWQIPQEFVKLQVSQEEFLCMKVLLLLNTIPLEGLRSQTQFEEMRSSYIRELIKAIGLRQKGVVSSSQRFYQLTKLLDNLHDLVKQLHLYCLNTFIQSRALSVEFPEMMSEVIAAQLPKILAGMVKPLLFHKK

[6] = CCB and eplerenone compared to CCB and placebo
[7] = eight weeks, eplerenone and CCB versus CCB and placebo

SMILES | myocardial fibrosis [1] | cardiac performance [2] | active renin levels [3, 6] | aldosterone levels [3, 6] | change in mean diastolic blood pressure [3, 7] | systolic blood pressure [3, 7] | serious adverse events ([3]; eplerenone added to CCB therapy) | cardiac performance [4] | binding affinity for the progesterone receptor, % that of spironolactone [5]
CC(=O)S[C@@H]1CC2=CC(=O)CC[C@]2(C)[C@H]2CC[C@@]3(C)[C@@H](CC[C@@]34CCC(=O)O4)[C@H]12 [spironolactone] | prevents myocardial fibrosis |  |  |  |  |  |  |  | 
COC(=O)[C@@H]1CC2=CC(=O)CC[C@]2(C)[C@@]23O[C@@H]2C[C@@]2(C)[C@@H](CC[C@@]24CCC(=O)O4)[C@H]13 [eplerenone, Pregn-4-ene-7,21-dicarboxylic acid, 9,11-epoxy-17-hy-droxy-3-oxo-, γ-lactone, methyl ester, (7α, 11α, 17β)-] |  | improvements in cardiac performance | greater increase | greater increase | greater for the dual therapy group, compared to monotherapy, but this difference did not reach statistical significance | significant reduction | no serious adverse events reported | improvments in cardiac performance | less than 1%
